# Experimental data from US10168342B2, “Lipid probes and uses thereof” (THE SCRIPPS RESEARCH INSTITUTE, priority 2015, dated 2019).
# Read-outs that look alike come from different tables or passages of the source.
# Tests used:
# [1] = biological target: T1, AEA-DA lipid probe targets in Neuro2a cells (Mus musculus, UniProt Q3TZX3)
# T1 sequence (Q3TZX3 1-320): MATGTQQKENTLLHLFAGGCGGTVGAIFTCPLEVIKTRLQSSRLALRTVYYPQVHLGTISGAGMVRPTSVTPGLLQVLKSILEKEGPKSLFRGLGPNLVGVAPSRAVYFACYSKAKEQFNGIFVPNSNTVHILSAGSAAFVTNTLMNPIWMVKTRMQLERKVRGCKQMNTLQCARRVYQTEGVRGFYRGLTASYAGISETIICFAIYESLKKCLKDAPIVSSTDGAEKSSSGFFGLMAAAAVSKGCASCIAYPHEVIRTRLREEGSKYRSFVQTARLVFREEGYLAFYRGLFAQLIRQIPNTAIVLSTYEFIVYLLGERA
# [2] = biological target: T2, AEA-DA lipid probe targets in Neuro2a cells (Mus musculus, UniProt P43883)
# T2 sequence (P43883 1-425): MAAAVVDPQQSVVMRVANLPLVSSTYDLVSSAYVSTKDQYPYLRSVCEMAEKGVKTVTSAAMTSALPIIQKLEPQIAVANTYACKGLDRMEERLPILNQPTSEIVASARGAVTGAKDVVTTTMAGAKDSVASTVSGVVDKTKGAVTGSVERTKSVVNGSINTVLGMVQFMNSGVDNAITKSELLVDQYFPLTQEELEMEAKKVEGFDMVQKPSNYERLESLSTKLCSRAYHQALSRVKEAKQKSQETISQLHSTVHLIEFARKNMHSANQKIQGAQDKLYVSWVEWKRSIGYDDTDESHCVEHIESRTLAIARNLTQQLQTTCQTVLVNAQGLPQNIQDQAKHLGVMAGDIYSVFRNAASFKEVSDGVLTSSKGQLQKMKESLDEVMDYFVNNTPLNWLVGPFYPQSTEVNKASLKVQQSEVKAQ
# [3] = biological target: T3, AEA-DA lipid probe targets in Neuro2a cells (Mus musculus, UniProt Q8BHN3)
# T3 sequence (Q8BHN3 33-944): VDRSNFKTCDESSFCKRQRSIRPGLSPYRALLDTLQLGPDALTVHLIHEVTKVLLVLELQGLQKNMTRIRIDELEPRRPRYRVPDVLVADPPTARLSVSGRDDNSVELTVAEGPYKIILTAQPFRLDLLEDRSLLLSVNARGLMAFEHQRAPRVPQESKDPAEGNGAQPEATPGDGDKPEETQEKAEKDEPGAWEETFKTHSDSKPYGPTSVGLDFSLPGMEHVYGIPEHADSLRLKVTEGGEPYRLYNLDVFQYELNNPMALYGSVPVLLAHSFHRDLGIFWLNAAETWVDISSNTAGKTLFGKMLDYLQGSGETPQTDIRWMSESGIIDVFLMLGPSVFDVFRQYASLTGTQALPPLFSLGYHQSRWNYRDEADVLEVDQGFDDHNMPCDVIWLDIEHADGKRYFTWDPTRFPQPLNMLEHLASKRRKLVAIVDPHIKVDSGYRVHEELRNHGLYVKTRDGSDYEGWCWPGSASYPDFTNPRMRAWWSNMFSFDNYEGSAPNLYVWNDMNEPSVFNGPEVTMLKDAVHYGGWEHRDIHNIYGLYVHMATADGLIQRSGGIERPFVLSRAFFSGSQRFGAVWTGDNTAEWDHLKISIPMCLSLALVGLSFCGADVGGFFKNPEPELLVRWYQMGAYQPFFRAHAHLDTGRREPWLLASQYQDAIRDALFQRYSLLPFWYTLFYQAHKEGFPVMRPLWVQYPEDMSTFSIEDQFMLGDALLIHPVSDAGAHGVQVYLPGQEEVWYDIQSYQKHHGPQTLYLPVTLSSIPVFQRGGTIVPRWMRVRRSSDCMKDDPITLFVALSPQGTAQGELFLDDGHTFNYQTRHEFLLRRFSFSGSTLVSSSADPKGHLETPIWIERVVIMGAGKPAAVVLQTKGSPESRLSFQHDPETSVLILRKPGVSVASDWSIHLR
# [4] = biological target: T4, AEA-DA lipid probe targets in Neuro2a cells (Mus musculus, UniProt Q9CRD0)
# T4 sequence (Q9CRD0 1-247): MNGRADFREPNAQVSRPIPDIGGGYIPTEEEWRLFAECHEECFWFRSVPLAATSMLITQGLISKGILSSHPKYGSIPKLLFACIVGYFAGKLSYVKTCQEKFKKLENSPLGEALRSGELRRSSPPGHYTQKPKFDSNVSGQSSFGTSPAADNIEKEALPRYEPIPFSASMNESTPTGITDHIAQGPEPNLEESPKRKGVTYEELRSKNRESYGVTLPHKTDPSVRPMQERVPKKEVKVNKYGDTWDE
SMILES,SILAC ratio Slc25a33 ([1]; competitor 25 μM),"SILAC ratio, Plin2 ([2]; competitor 25 μM)",SILAC ratio Ganab ([3]; competitor 25 μM),SILAC ratio Ociad1 ([4]; competitor 25 μM),also measured
"CCCCC/C=C\C/C=C\C/C=C\C/C=C\CCCC(=O)NCCO [AEA, anandamide, reference compound]",–,–,–,–,"SILAC ratio Slc25a33 ([1]; competitor 200 μM): 1.3; SILAC ratio, Plin2 ([2]; competitor 200 μM): 1.4; SILAC ratio Ganab ([3]; competitor 200 μM): 1.1; SILAC ratio Ociad1 ([4]; competitor 200 μM): 1.6"
"O=C(/C=C/c1cccnc1)NCCCCC1CCN(C(=O)c2ccccc2)CC1 [FK-866, reference compound]",1.2,1.0,1.1,1.1,–
"CN1CCN(C(=O)c2c(-c3ccccc3)c3cc([N+](=O)[O-])ccc3n2C)CC1 [KML110, (1-Methyl-5-nitro-3-phenyl-1H-indol-2-yl)(4-methylpiperazin-1-yl)methanone]",1.4,2.7,1.3,1.3,–
"CN1CCN(C(=O)c2[nH]c3ccc([N+](=O)[O-])cc3c2-c2ccccc2)CC1 [MJN228, (4-Methylpiperazin-1-yl)(5-nitro-3-phenyl-1H-indol-2-yl)methanone]",1.2,3.2,1.2,1.4,"SILAC ratio Slc25a33 ([1]; competitor 10 μM): 1.2; SILAC ratio Slc25a33 ([1]; competitor 50 μM): 0.9; SILAC ratio Slc25a33 ([1]; competitor 100 μM): 0.6; SILAC ratio, Plin2 ([2]; competitor 10 μM): 1.8; SILAC ratio, Plin2 ([2]; competitor 50 μM): 20.0; SILAC ratio, Plin2 ([2]; competitor 100 μM): 20.0; SILAC ratio Ganab ([3]; competitor 10 μM): 1.2; SILAC ratio Ganab ([3]; competitor 50 μM): 1.5; SILAC ratio Ganab ([3]; competitor 100 μM): 1.6; SILAC ratio Ociad1 ([4]; competitor 10 μM): 1.1; SILAC ratio Ociad1 ([4]; competitor 50 μM): 1.1; SILAC ratio Ociad1 ([4]; competitor 100 μM): 1.5"
"C=CCN(C)CCCCCCOc1ccc(C(=O)c2ccc(Br)cc2)c(F)c1 [Ro 48-8071, reference compound]",1.0,1.8,0.9,1.0,–
